Measurements published in patent US20040214850A1, “1-glyoxylamide indolizines for treating cancer” (Synta Pharmaceuticals Corp., priority 2001, published 2004).
Where two headings read alike, the source gives them in different places.

What was measured:
[1] = system: MES-SA/DX5 (multi-drug resistant human uterine sarcoma cell line); assay: In vitro activity against multi-drug resistant cell line MES-SA/DX5; assay type: cell-based
Experimental: (§1) The cell lines were maintained in RPMI1640 (GIBCO) supplemented with 10% FCS, 100 units/ml penicillin, 100 ug/ml streptomycin, and 2 mM L-glutamine. The cells were split every third day and diluted to a concentration of 2×10^5 cells/ml one day before experiment. All experiments were performed on exponentially growing cell culture. Cell densities were 2.5×10^4 cells/ml in all experiment.
(§2) A stock solution of Compound (1) and a stock solution of Taxol (positive control) were prepared by dissolving the compound at a concentration of 1 mM in 100% DMSO. Final concentrations were obtained by diluting the stock solution directly into the tissue culture medium. Cells were incubated with varying concentrations of the compounds for 72 hours and the IC50 was determined by MTS (i.e. 3-(4,5,-dimethylthiazol-2-yl)-2,5-diphenyl tetrazolium bromide) assay. IC50 stands for the concentration of compound required to inhibit 50% tumor cell growth.
(§3) In vitro activity was determined in two MDR (Multi Drug Resistant) human cancer cell lines. HL-60/TX1000 was isolated in vitro by subculturing HL-60 in progressively higher concentration of Taxol. HL-60/TX1000 cells over-express mdr-1 mRNA and p-glycoprotein, as determined by western blot and immunofluorescence labeling with antiPGP antibodies. The cell is cross-resistant to Taxol, Vincristine, Adriamycin, Etoposide and Doxorubicin. MES-SA/Dx5 was established in the presence of increasing concentrations of Doxorubicin. […] MES-SA/Dx5 was purchased from ATCC.
(§4) The procedure for culturing the cells and assaying cancer cell growth inhibition were as described in Example 3.
The protocol described in Examples 9-10 was used to assay inhibition by Compounds (2)-(8) on the growth of the multidrug resistant cancer cell line MES-SA/DX5, which is a MDR uterine sarcoma cell line.

[2] = system: MES-SA (human uterine sarcoma); assay: In vitro anti-cancer activity, MTS growth inhibition assay, MES-SA; assay type: cell-based
Experimental: (§5) The in vitro activity of the compounds was determined in the following seven human cancer cell lines. MDA435 (human breast cancer), MIP101 (human colon cancer), HL-60 (human myeloid leukemia), U937 (human leukemia), p388 (murine leukemia), DU-145 (human prostate cancer), MES-SA (human uterine sarcoma) were obtained from ATCC (American Type of Culture Collection).
as §1, §2
(§6) The protocol described in Examples 9-10 was used to assay inhibition by Compounds (20) (21) (24) and (28) on the growth of cancer cell lines MES-SA (human uterine sarcoma cell line) and DU-145 (human prostate cancer).

MES-SA and DU-145 = assay: in vitro activity over MES-SA and DU-145; assay type: cell-based; settings: Homo sapiens; range over both cell lines; read-out: IC50 against MES-SA and DU-145
Experimental: as §1, §2, §6

[3] = system: DU-145 (human prostate cancer); assay: In vitro anti-cancer activity, MTS growth inhibition assay, DU-145; assay type: cell-based
Experimental: as §5, §1, §2, §6

[4] = system: MDR cell lines (MES-SA/DX5, HL-60/TX1000); assay: in vitro activity over the two MDR cell lines; assay type: cell-based, human; settings: Homo sapiens; range over MES-SA/DX5 and HL-60/TX1000; read-out: IC50 against the MDR cell lines
Experimental: as §1, §2, §3, §4

[5] = system: MIP101 (human colon cancer); assay: In vitro anti-cancer activity, MTS growth inhibition assay, MIP-101; assay type: cell-based; settings: MIP-101 cells, 72 hours
Experimental: as §5, §1, §2

p388 (murine leukemia) = assay: In vitro anti-cancer activity, MTS growth inhibition assay, p388; assay type: cell-based; settings: Mus musculus, p388 cells, 72 hours
Experimental: as §5, §1, §2

[6] = system: MDA435 (human breast cancer); assay: In vitro anti-cancer activity, MTS growth inhibition assay, MDA-435; assay type: cell-based; settings: MDA-435 cells, 72 hours
Experimental: as §5, §1, §2

[7] = system: HL-60 (human myeloid leukemia); assay: In vitro anti-cancer activity, MTS growth inhibition assay, HL-60; assay type: cell-based; settings: HL-60 cells, 72 hours
Experimental: as §5, §1, §2

[8] = system: HL-60/TX1000 (multi-drug resistant human myeloid leukemia cell line); assay: In vitro activity against multi-drug resistant cell line HL-60/TX1000; assay type: cell-based; settings: HL60/TX1000, HL-60/TX1000 MDR cells (Table 2)
Experimental: as §1, §2, §3, §4

U937 (human leukemia) = assay: In vitro anti-cancer activity, MTS growth inhibition assay, U-937; assay type: cell-based; settings: U-937 cells, 72 hours
Experimental: as §5, §1, §2

[9] = MES-SA/DX5 MDR cells (Table 3, Example 12)
[10] = MES-SA cells (Table 4, Example 13), read-out: IC50 MES-SA
[11] = DU-145 cells (Table 4, Example 13), read-out: IC50 DU-145

| IC50 [1, 9] [nM] | IC50 [2, 10] [nM] | IC50 (MES-SA and DU-145) [nM] | IC50 [3, 11] [nM] | SMILES | further results |
| --- | --- | --- | --- | --- | --- |
| 60 |  |  |  | Cc1cc(NC(=O)C(=O)c2cc(Cc3ccc(Cl)cc3)n3ccccc23)sn1 [Compound (2)] |  |
| 100 |  |  |  | O=C(Nc1ccc2ncccc2c1)C(=O)c1cc(Cc2ccc(Cl)cc2)n2ccccc12 [Compound (3)] |  |
| 50 |  |  |  | Cc1cc(NC(=O)C(=O)c2cc(Cc3ccc(C#N)cc3)n3cc(F)ccc23)sn1 [Compound (4)] |  |
| 100 |  |  |  | N#Cc1ccc(Cc2cc(C(=O)C(=O)Nc3ccc4ncccc4c3)c3ccccn23)cc1 [Compound (5)] |  |
| 50 |  |  |  | Cc1cc(NC(=O)C(=O)c2cc(Cc3ccccc3)n3ccccc23)sn1 [Compound (6)] |  |
| 50 |  |  |  | Cc1cc(NC(=O)C(=O)c2cc(Cc3ccc(F)cc3)n3ccccc23)sn1 [Compound (7)] |  |
| 100 |  |  |  | COc1ccc(Cc2cc(C(=O)C(=O)Nc3cc(C)ns3)c3ccccn23)cc1 [Compound (8)] |  |
|  | 50 | 50 to 100 | 50 | Cc1cc(NC(=O)C(=O)c2cc(Oc3ccc(C#N)cc3)n3ccccc23)sn1 [Compound (20), 2-[3-(4-Cyano-phenoxy)-indolizin-1-yl]-N-(3-methyl-isothiazol-5-yl)-2-oxo-acetamide] |  |
|  | 50 | 50 to 100 | 50 | Cc1cc(NC(=O)C(=O)c2cc(N(C)c3ccc(C#N)cc3)n3ccccc23)sn1 [Compound (21), 2-{3-[(4-Cyano-phenyl)-methyl-amino]-indolizin-1-yl}-N-(3-methyl-isothiazol-5-yl)-2-oxo-acetamide] |  |
|  | 50 | 50 to 100 | 50 | Cc1ccc2c(C(=O)C(=O)Nc3cc(C)ns3)cc(Cc3ccc(C#N)cc3)n2c1 [Compound (24), 2-[3-(4-Cyano-benzyl)-6-methyl-indolizin-1-yl]-N-(3-methyl-isothiazol-5-yl)-2-oxo-acetamide] |  |
|  | 100 | 50 to 100 | 100 | Cc1cc(NC(=O)C(=O)c2cc(Cc3ccc(C#N)s3)n3ccccc23)sn1 [Compound (28), 2-[3-(5-cyano-thiophen-2-ylmethyl)-indolizin-1-yl]-N-(3-methyl-isothiazol-5-yl)-2-oxo-acetamide] |  |
| 5000 |  |  |  | CC(=O)O[C@H]1C(=O)[C@@]2(C)[C@H]([C@H](OC(=O)c3ccccc3)[C@]3(O)C[C@H](OC(=O)[C@H](O)[C@@H](NC(=O)c4ccccc4)c4ccccc4)C(C)=C1C3(C)C)[C@]1(OC(C)=O)CO[C@@H]1C[C@@H]2O [Taxol, reference compound] | IC50 [4]: 1000 to 5000 nM; IC50 ([2]; MES-SA cells, 72 hours, MTS assay (Table 1), read-out: IC50): 5 nM; IC50 [5]: 500 nM; IC50 (p388 (murine leukemia)): 10 nM; IC50 [6]: 5 nM; IC50 [7]: 5 nM; IC50 [8]: 5000 nM; IC50 (U937 (human leukemia)): 5 nM; IC50 ([3]; DU-145 cells, 72 hours, MTS assay (Table 1), read-out: IC50): 5 nM |
|  |  |  |  | CC[C@]1(O)C[C@H]2CN(CCc3c([nH]c4ccccc34)[C@@](C(=O)OC)(c3cc4c(cc3OC)N(C=O)[C@H]3[C@@](O)(C(=O)OC)[C@H](OC(C)=O)[C@]5(CC)C=CCN6CC[C@]43[C@@H]65)C2)C1 [Vincristine] | IC50 [4]: 1000 to 5000 nM; IC50 ([1]; MES-SA/Dx5, MES-SA/DX-5 MDR cells (Table 2)): 1000 nM; IC50 [8]: 5000 nM |
